In test [1] the test system is E. coli clinical strain UT189 against bladder epithelial cells. The test can be described thus: Binding to and invasion of bladder epithelial cells by E. coli. It counts as cell-based. Conditions: 40 μg/ml, 60 minutes; separate experiments (n=4 to 7). Here is the method: The effect of test compounds on bacterial invasion of E. coli clinical strain UT189 was studied as described in Elsinghorst, et al. 1994, Methods Enzymol, 236:405-420; and Martinez et al., 2000, EMBO J., 19:2803-2812. Epithelial bladder cells were grown in plates. Asiatic acid, corosolic acid, or ursolic acid were added at concentrations of 10 μg/ml, 20 μg/ml, or 40 μg/ml to bacteria and epithelial cells for approximately 5, 15, 30, or 60 minutes with approximately 10^7 CFU of E. coli. Binding was assessed at time zero and invasion was assessed at approximately 5, 15, 30, or 60 minutes from completing the mixture of compound, bacteria, and epithelial cells. As a control ethanol was added to cells to a final concentration of 0.1%. The effect of bacterial viability and bacterial adherence during the infection period was evaluated according to the methods described in Martinez et al., 2000, EMBO J., 19:2803-2812.

The subject of test [2] is P. aeruginosa strain PAO1. The test can be described thus: Rotating disk reactor (RDR) biofilm test with and without tobramycin, culturable bacteria. It counts as cell-based, Pseudomonas aeruginosa. To be noted: average of three days; for CFU, Test Compound: no tobramycin; for CFU, Tobramycin and Test Compound: then tobramycin 100 μg/ml 2 h. Here is the method:
Biofilm formation of P. aeruginosa was evaluated using a standardized biofilm method with a rotating disk reactor (RDR). This method provides a model resembling the formation of biofilms in cystic fibrosis patients. The rotating disk reactor consists of a one-liter glass beaker fitted with a drain spout. The bottom of the vessel contains a magnetically driven rotor with six 1.27 cm diameter coupons constructed from polystyrene. The rotor consists of a star-head magnetic stir bar upon which a disk was affixed to hold the coupons. The vessel with the stir bar was placed on a stir plate and rotated to provide fluid shear. A nutrient solution (AB Trace Medium with 0.3 mM glucose, see Table 3 below for composition) was added through a stopper in the top of the reactor at a flow rate of 5 ml/min. The reactor volume was approximately 180 ml and varied slightly between reactors depending on the placement of the drain spout and the rotational speed of the rotor. At a volume of 180 ml, the residence time of the reactors was 36 minutes. The reactors were operated at room temperature (c.a. 26° C.).
For each test, two RDRs were operated in parallel with one receiving test compound and the other serving as an untreated control. The RDRs were sterilized by autoclave, then filled with sterile medium and inoculated with P. aeruginosa strain PAO1. The reactors were then incubated at room temperature in batch mode (no medium flow) for a period of 24 hours, after which the flow was initiated for a further 24 hour incubation. Test compounds were dissolved in 10 ml ethanol to achieve a concentration of 1.8 mg/ml. After the 48 hours of biofilm development described above, the 10 ml of ethanol containing the test compounds were added to the reactor to achieve a final concentration of approximately 50, 100, or 200 μg/ml. Control reactors received 10 ml of ethanol. The reactors were then incubated for an additional 24 hours in batch (no flow) mode. After this incubation period, the six coupons were removed from each reactor and placed in 12-well polystyrene tissue culture plates with wells containing either 2 ml of a 100 μg/ml tobramycin solution or 2 ml of phosphate-buffered saline (PBS). These plates were incubated at room temperature for two hours. The coupons were then rinsed by three transfers to plates containing 2 ml of fresh PBS. For each two RDR reactors run in parallel, four sets of three coupons were obtained: one set with no test compound treatment and no tobramycin treatment, one set with no test compound treatment and tobramycin treatment, one set treated with a test compound treatment and no tobramycin treatment, and one set treated with a test compound treatment and tobramycin. After rinsing, one coupon of each set of three was stained with a LIVE/DEAD® BacLight™ Bacterial Viability Kit (Molecular Probes, Eugene Oreg.) and imaged using epifluorescent microscopy. The remaining two coupons were placed in 10 ml of PBS and sonicated for five minutes to remove and disperse biofilm cells. The resulting bacterial suspensions were then serially diluted in PBS and plated on tryptic soy agar plates for enumeration of culturable bacteria. The plates were incubated for 24 hours at 37° C. before colony forming units (CFU) were determined.
The results are averages from experiments performed on three separate days for each test compound. The values reported are as loglo CFU.

In test [3] the test system is E. coli clinical strain UT189. Briefly: Inhibition of biofilm formation, crystal violet, 96 well plates. The class given is cell-based. To be noted: Escherichia coli, compared to the controls, read-out: inhibited biofilm formation of the UT189 strain.

In the case of `C[C@H]1[C@H](C)CC[C@]2(C(=O)O)CC[C@]3(C)C(=CC[C@@H]4[C@@]5(C)C[C@@H](O)[C@H](O)[C@@](C)(CO)[C@@H]5CC[C@]43C)[C@H]12` [Asiatic acid], in test [1], the “reduced invasion of E. coli into bladder epithelial cells” value was determined as 87%. Further, the “CFU, Test Compound” value in test [2] (test compound 50 μg/ml 24 h) came out at 7.7 loglo CFU; in test [2] (test compound 100 μg/ml 24 h) it was 7.7 loglo CFU; in test [2] (test compound 200 μg/ml 24 h) it was 7.5 loglo CFU. In addition, the “CFU, Tobramycin and Test Compound” value worked out at 5.3 loglo CFU in test [2] (test compound 50 μg/ml 24 h), 5.5 loglo CFU in test [2] (test compound 100 μg/ml 24 h) and 5.2 loglo CFU in test [2] (test compound 200 μg/ml 24 h). The inhibition at 4 µg/mL in test [3] (4 ug/ml) is approximately 10%. The inhibition at 8 µg/mL in test [3] (8 ug/ml) is approximately 15%. For the same compound, the inhibition at 16 µg/mL in test [3] (16 ug/ml) is approximately 50%. The inhibition at 32 µg/mL in test [3] (32 ug/ml) is approximately 90%.
